# Assay results taken from ChEMBL document CHEMBL1201862, “PubChem BioAssay data set” (2004).
# Active and inactive are the calls of the source. Cut-off read from the data, not from the text of the source, for most assays here: actives have a measured AC50 and inactives only a lower limit.
# Target: T1, Corticotropin-releasing factor receptor 2/Corticotropin-releasing factor-binding protein (Homo sapiens, UniProt P24387+Q13324)
# T1 sequence (Q13324 whole entry): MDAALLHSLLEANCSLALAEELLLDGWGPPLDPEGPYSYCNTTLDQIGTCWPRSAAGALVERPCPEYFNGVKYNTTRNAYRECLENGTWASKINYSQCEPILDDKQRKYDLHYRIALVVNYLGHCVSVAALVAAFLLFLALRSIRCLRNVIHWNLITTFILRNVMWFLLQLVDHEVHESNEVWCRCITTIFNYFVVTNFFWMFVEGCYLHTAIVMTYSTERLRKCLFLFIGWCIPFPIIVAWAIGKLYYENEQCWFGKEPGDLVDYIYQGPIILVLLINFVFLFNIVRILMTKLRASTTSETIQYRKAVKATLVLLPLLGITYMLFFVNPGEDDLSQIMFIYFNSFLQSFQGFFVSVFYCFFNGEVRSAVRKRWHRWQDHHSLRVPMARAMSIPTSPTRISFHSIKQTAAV
# T1 sequence (P24387 whole entry): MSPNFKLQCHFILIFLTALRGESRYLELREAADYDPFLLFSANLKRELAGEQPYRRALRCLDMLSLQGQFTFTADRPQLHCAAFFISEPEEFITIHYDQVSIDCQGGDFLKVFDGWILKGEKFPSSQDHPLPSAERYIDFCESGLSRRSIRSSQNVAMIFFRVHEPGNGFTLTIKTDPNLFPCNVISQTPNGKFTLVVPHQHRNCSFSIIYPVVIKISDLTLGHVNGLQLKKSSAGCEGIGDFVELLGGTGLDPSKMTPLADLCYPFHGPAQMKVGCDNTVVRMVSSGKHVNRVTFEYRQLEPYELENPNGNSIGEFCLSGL
# Assay: Dose Response confirmation of uHTS hits for small molecule antagonists of the CRF-binding protein and CRF-R2 receptor complex.
# Format: functional
# Details: read-out: IC50_Mean
row,Compound,IC50
1,O=C(Cc1ccc(-n2cccc2)cc1)N1CCN(c2ccccc2F)CC1,> 47.1 µM (inactive)
2,COc1ccc(S(=O)(=O)N(CC(C)C)C2CCS(=O)(=O)C2)cc1OC (stereo not drawn),> 47.1 µM (inactive)

# Tested on: not listed separately
# Assay: P. falciparum Dd2 growth inhibitors, dose response, SYBR Green, cherry-picked samples (AID 1159567)
# Format: functional, cell-based
# Details: not given
row,Compound,AC50
1,C/C=C/c1ccc2c(c1)[C@H]1[C@H](CCN1C(=O)c1ccc3c(c1)OCO3)[C@H](CO)N2,6.34 µM (active)
2,C[C@H](CO)N1C[C@H](C)[C@@H](CN(C)C(=O)c2ccccc2F)Oc2ncc(C#Cc3ccccc3)cc2C1=O,4.79 µM (active)
3,C[C@H]1CN([C@@H](C)CO)C(=O)c2c(c3ccccc3n2C)-c2ccccc2CO[C@@H]1CN(C)C(=O)Nc1cccc(F)c1,5.29 µM (active)

# Tested on: not listed separately
# Assay: Shn3 3'UTR reporter inhibitors, dose response, cell-based, Clone20 osteoblasts, firefly luciferase, cherry-picked (AID 624132);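 note: firefly luciferase luminescence from reporter carrying the Shn3 3'UTR in osteoblasts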
# Format: functional
# Details: not given
row,Compound,AC50
1,O=C(O)C1(Nc2ccccc2Cl)CCCC1,29.5 µM (active)

# Target: T2, Rac GTPase-activating protein 1 (Homo sapiens, UniProt Q9H0H5)
# T2 sequence (Q9H0H5 whole entry): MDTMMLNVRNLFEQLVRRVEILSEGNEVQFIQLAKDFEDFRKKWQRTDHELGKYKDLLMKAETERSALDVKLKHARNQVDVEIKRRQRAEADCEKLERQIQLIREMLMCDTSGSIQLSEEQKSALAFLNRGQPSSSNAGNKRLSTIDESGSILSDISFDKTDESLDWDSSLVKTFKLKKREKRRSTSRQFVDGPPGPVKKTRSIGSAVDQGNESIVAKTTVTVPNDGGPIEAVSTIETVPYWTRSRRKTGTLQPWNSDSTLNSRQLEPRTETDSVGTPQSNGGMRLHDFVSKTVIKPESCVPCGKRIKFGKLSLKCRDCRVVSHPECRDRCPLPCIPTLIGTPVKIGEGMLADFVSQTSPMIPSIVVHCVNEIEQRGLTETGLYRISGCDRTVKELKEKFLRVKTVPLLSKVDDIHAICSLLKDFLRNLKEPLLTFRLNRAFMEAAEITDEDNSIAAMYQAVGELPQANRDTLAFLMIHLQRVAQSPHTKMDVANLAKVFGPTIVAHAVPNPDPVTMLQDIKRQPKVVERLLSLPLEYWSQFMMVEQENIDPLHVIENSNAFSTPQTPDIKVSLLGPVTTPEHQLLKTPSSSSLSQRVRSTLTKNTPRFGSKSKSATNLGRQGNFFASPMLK
# Assay: MgcRacGAP GTPase-activating activity inhibitors, confirmation, biochemical, ADP Hunter fluorescence, primary and confirmatory (AID 624330)
# Format: functional
# Details: not given
row,Compound,IC50
1,Cn1c(-c2ccccc2)cnc1NCc1ccc(-c2ccccc2)cc1,78.1 µM (active)
2,COc1ccc(NC2CCCN(C(=O)CCc3ccccc3F)C2)cc1 (stereo not drawn),65.4 µM (active)
3,COc1cc(/C=N/NC(=O)c2ccc(O)nn2)ccc1O,23.9 µM (active)

# Target: FAD-linked sulfhydryl oxidase ALR (Homo sapiens, UniProt P55789)
# Sequence (P55789 whole entry): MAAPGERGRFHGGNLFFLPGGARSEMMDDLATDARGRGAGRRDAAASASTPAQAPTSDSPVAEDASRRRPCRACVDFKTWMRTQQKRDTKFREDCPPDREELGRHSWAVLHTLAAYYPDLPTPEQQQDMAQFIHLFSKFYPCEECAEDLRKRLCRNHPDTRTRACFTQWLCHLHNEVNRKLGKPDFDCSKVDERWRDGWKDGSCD
# Assay: inhibitors of human ALR sulfhydryl oxidase, dose response, biochemical, H2O2 detection, luminescence, cherry-pick (AID 493248)
# Details: not given
row,Compound,AC50
1,CSCc1ccc(C(=O)NC(C)c2cnn(-c3ccccn3)c2C)o1 (stereo not drawn),9.51 µM (active)
2,COc1ccc(C2NC(=O)C(C#N)=C(S)N2c2ccccc2)cc1OC (stereo not drawn),< 0.014 µM (active)
3,CC1CCC(NC(=O)Nc2cccs2)CC1 (stereo not drawn),1.18 µM (active)
4,Fc1ccc(N2CCN(Cc3ccccn3)CC2)cc1,8.77 µM (active)
5,COC(=O)Nc1ccc(S(=O)(=O)N2CCC(C(=O)N(C)C3CCCCC3)CC2)cc1,1.92 µM (active)
6,COc1ccc(NC2CCCN(C(=O)CCc3ccccc3F)C2)cc1 (stereo not drawn),13.4 µM (active)
7,Cc1ccsc1C(=O)NNC(=O)CCN1CCN(c2ccccc2)CC1,4.88 µM (active)
8,Cc1ccc(NC2CCCN(C(=O)c3cc4ncccn4n3)C2)cc1C (stereo not drawn),4.14 µM (active)
9,COc1cc(/C=N/NC(=O)c2ccc(O)nn2)ccc1O,1.22 µM (active)

# Target: T1, Corticotropin-releasing factor receptor 2/Corticotropin-releasing factor-binding protein
# Assay: activators of CRF receptor 2 with binding protein – uHTS hits, confirmation (AID 602473)
# Format: functional
# Details: read-out: EC50_Mean
row,Compound,EC50
1,O=C(Cc1ccc(-n2cccc2)cc1)N1CCN(c2ccccc2F)CC1,> 53 µM (inactive)
2,COc1ccc(S(=O)(=O)N(CC(C)C)C2CCS(=O)(=O)C2)cc1OC (stereo not drawn),> 53 µM (inactive)

# Tested on: not listed separately
# Assay: Luminescence Cell-Based Dose Retest to Confirm Inhibitors of Cancer Stem Cells. [Related pubchem assays (depositor defined):AID2717, AID2721]
# Format: functional
# Details: Homo sapiens
row,Compound,AC50
1,FC(F)(F)c1cccc(Nc2ncnc3ccccc23)c1,1.43 µM (active)
2,Cn1c(-c2ccccc2)cnc1NCc1ccc(-c2ccccc2)cc1,1.34 µM (active)
3,C=C1CCN([C@@H](CC(C)C)C(=O)Nc2nc3ccc(Cl)cc3s2)S(=O)(=O)c2ccccc21,5.19 µM (active)
